The numbers were not newly measured in US20120156286A1, “COMPOSITIONS AND METHODS FOR INCREASED DELIVERY OF COENZYME Q10” (IMAGENETIX, INC., priority 2010, published 2012), which cites them from elsewhere.

The conditions of the data set: in vivo.

`COC1=C(OC)C(=O)C(C/C=C(\C)CC/C=C(\C)CC/C=C(\C)CC/C=C(\C)CC/C=C(\C)CC/C=C(\C)CC/C=C(\C)CC/C=C(\C)CC/C=C(\C)CCC=C(C)C)=C(C)C1=O` [CoQ10, Coenzyme Q10]: the Intestinal absorption entry is given as “less than 10%”.
